Assay results reported in patent US20070004634A1 (Novo Nordisk A/S, priority 1998, published 2007).
Residues, ends and D or L forms follow the SMILES beside them. No end group written: not given here.

Experiments:
[1] = tested on: free fat cells (adipocytes); test: Adipocyte / free fat cell (FFC) assay, 3H glucose incorporation into lipid
Protocol: Incorporation of ^3H into the lipid phase was determined by partitioning of lipid phase into a scintillant mixture, which excludes water-soluble ^3H products.

IGF-1R = IGF-1R (Homo sapiens, UniProt P08069); test: Phage ELISA, binding of phage clones to IGF-1R (ratio over background); conditions: ratio of IGF-1R divided by ratio of IR
Protocol: (§1) HIT indicates binder; CAND indicates binder candidate; LDH indicates binding to lactate dehydrogenase (negative control); Sp/Irr indicates the ratio of specific binding over non-specific binding.
(§2) Sp/Irr=the ratio of specific binding over non-specific binding; LDH=lactate dehydrogenase (negative control).
(§3) For phage pools, cells from frozen stocks were grown and phage were prepared as described above. For analysis of individual clones, colonies were picked and phage prepared as described above. Subsequent steps were the same for pooled and clonal phage. Microtiter wells were coated and blocked as described above. […] Phage resuspended in MPBS (PBS containing 2% non-fat milk) were added to wells (100 μl/well) and incubated at room temperature for 1 h. The phage solution was then removed, and the wells were washed three times with PBS at room temperature.
(§4) Anti-M13 antibody conjugated to horseradish peroxidase (Pharmacia Biotech) was diluted 1:3000 in MPBS and added to each well (100 μl/well). Incubation was for another hour at room temperature, followed by PBS washes as described. Color was developed by addition of ABTS solution (100 μl/well; Boehringer). […] Data points were averaged after subtraction of appropriate blanks. A clone was considered “positive” if the A405 of the well was ≧2-fold over background.

IR = IR (Homo sapiens, UniProt P06213); test: Phage ELISA, binding of phage clones to IR (ratio over background); conditions: ratio of IR divided by ratio of IGF-1R
Protocol: as §1, §2, §3, §4

[2] = free fat cell assay potency class, Table 7

Molecule | Comparisons IGF-1R/IR (IGF-1R) | Comparisons IR/IGF-1R (IR) | also measured
CC[C@@H](C)[C@@H](NC(=O)[C@H](CCC(=O)O)NC(=O)[C@H](CC(=O)O)NC(=O)[C@H](Cc1ccccc1)NC(=O)[C@H](Cc1c[nH]c2ccccc12)NC(=O)[C@H](CCC(=O)O)NC(=O)[C@H](Cc1ccc(O)cc1)NC(=O)[C@H](Cc1ccccc1)NC(=O)[C@H](CCC(=O)O)NC(=O)[C@H](CCCCN)NC(=O)[C@H](CC(N)=O)NC(=O)[C@H](CC(N)=O)NC(=O)[C@@H](N)CCCCN)C(=O)NCC(=O)N[C@H](CCC(N)=O)C(=O)O [Peptide S320] (HELM PEPTIDE1{K.N.N.K.E.F.Y.E.W.F.D.E.[dI].G.[dQ]}$$$$V2.0; N-terminus and C-terminus assumed) | – | – | FFC ([1]; FFC assay potency grade, 0, + to ++++++, −): 0
ESFYDWFERQ [Peptide S400] | – | – | FFC ([1]; Table 6, free fat cell assay): 0; FFC [1, 2]: 0
GSLDESFYDWFER [Peptide S396] | – | – | FFC ([1]; Table 6, free fat cell assay): 0; FFC [1, 2]: 0
(ESFYDWFERQLGK)2-23 [Peptide S415] | – | – | activity in the free fat cell (FFC) assay / at IR, in words [1]: highly potent
RB596 (MQNDDGSLDESFYDWFERQLGHHHHHHPG) | – | – | FF ([1]; fat cell potency, symbols ++ and − not defined in the table): 9.4*10^−8
GSLDESFYDWFERQ [Peptide S394] | – | – | activity in the free fat cell (FFC) assay / at IR, in words [1]: potency similar to full-length RP9 monomer peptides; FFC [1, 2]: +
GAPVDQLHEDFYDWFVRQVSQAATG [H2CA-2-B2-IGFR] | 3.5 | 0.3 | –
VATSQGFYSGLSELLQGGGNV [20E2B-3-E12-IGFR] | 7.3 | 0.1 | –
GFREGSFYDWFQAQVT [E4Dα-2-D11-IR] | 3.4 | 0.3 | –
SSYGCDGFYLMLFSLGLVASQELEC [20C-3-A1-IGFR] | 13.7 | 0.1 | –
PDLHKGFYAQLAQLIRGQLLS [20E2B-3-E3-IGFR] | 13.1 | 0.1 | –
PVGVQGFYEGLSRLVLGRGGW [20E2B-4-F8-IGFR] | 9.7 | 0.1 | –
RQGTGSFYLMLEQLLVGARGP [20E2B-4-G11-IGFR] | 7.0 | 0.1 | –
LSCLAYSRHGIWRPSTDLGLGRSVGEGSVSTRWRGYDWFE [40F-4-D1-IGFR] | 13.1 | 0.1 | –
RCQGTGFYTCIQELIGFGDPD [20E2B-4-H9-IGFR] | 5.6 | 0.2 | –
TFYSCLASLLTGTPQPNRGPWERCR [20C-3-G3-IGFR] | 27.0 | <0.1 | –
QPAPDGFYSALMKLIGRGGVS [20E2B-3-C8-IGFR] | 8.9 | 0.1 | –

Molecule | Comparisons IGF-1R/IR (IGF-1R) | Comparisons IR/IGF-1R (IR) | also measured
RFSTDGFYQYLLALVGGGPVG [20E2B-1-A11-IGFR] | 9.7 | 0.1 | –
W.GYAWLS [40F-4-D10-IGFR] | 11.7 | 0.1 | –
RGMKEEVLVGGSTDPFYHKLSELLQGS [B6Hα-3-F11-IR] | 11.7 | 0.1 | –
YSCGDGFYSLLSDLLGGQFRC [20E2B-4-H12-IGFR] | 12.8 | 0.1 | –
FFYDCLAALLQGVARYHDLCAVEIT [20C-4-C7-IGFR] | 21.8 | <0.1 | –
SGAKVIVVTGDSGDPFYHKLSELLQGS [B6Hα-2-C10-IR] | 5.3 | 0.2 | –
TLRSPTFYDWLEMVLTHGQGG [20E2B-1-A8-IGFR] | 5.0 | 0.2 | –
GLDHSDAVGVHLGFAWPAQARGRWEAGGLEDTWAGYDWL [40F-4-B1-IGFR] | 13.1 | 0.1 | –
QSGSGDFYDWLSRLIRGNGDG [20E2Bβ-3-C7-IR] | 2.0 | 0.5 | –
GNGDGMFYQLLSLLVGRDMHV [20E2B-3-C2-IGFR] | 13.8 | 0.1 | –
VVTPVNFYRALEALVRG.RLG (VVTPVNFYRALEALVRGXRLG; not fully specified; printed as VVTPVNFYRALEALVRG.RLG; X: residue not identified in the source; ends and bridges not checked) [20E2B-2-B11-IGFR] | 9.4 | 0.1 | –
APDPSDFQEIFYDWFVRQVSRMPGGG [H2CA-1-A3-IGFR] | 5.1 | 0.2 | –
GHYFGSFYDAIDQLVAGMLPG [20E2A-3-A3-IGFR] | 1.9 | 0.5 | –
DRDFCRFYERLTALVGGQVDGGWPC [20C-3-F6-IGFR] | 14.1 | 0.1 | –
QGGSASFYDAIDRLLRMRIGG [20E2A-4-F11-IGFR] | 14.6 | 0.1 | –
FFYRCLSRLLGGQLGSRLGLSCIGD [20C-3-E4-IGFR] | 6.0 | 0.2 | –

More lines, main results first:

Comparisons IGF-1R/IR (IGF-1R) | Comparisons IR/IGF-1R (IR) | Molecule | also measured
3.6 | 0.3 | GGTKAVAKVGTRDDPFYHKLSELLQGS [Peptide B6Hα-4-G8-IR] | –
4.0 | 0.3 | NYRRQVFNGNFYDWFDRQVFSLVTPG [H2CA-3-D8-IGFR] | –
12.9 | 0.1 | FYDAIDQLVRGSARAGGTRD [R20α-3-20E2-IR] | –
2.6 | 0.4 | VERSASSQDGNFYDWFVVQIR [Peptide A6S-2-D1-IR] | –
6.4 | 0.2 | AVRATRFDEAFYDWFVRQISDGQGNK [H2CA-4-F6-IGFR] | –
3.9 | 0.3 | TLDGGSFEEQFYDWFVRQLSYRTNPD [H2CA-4-G11-IGFR] | –
1.4 | 0.7 | VDTPAQVGWNRLWSVGPGEHWYTDDPFYH*LSELLRESGA [Peptide B6L-3-G6-IR] | –
11.0 | 0.1 | RCGRW*AEMGAGDDPFYHKLSELVCG (RCGRWXAEMGAGDDPFYHKLSELVCG; not fully specified; X: residue not identified in the source; cysteine pairing not given here) [Peptide B6Hα-2-C4-IR] | –
4.2 | 0.2 | RAGSSDFHEDFYEWFVRQVSLSLKGK [H2CA-2-B9-IGFR] | –
4.8 | 0.2 | SSCDGAGHESFYEWFVRQVSGCRSV [H2CA-3-C8-IGFR] | –
2.9 | 0.3 | GCITAENGAGDPFYHKLSELGGCS [Peptide B6Hα-1-B3-IR] | –
7.1 | 0.1 | EGSGFYGYFFSLLGLQG [NNRPγ-4-A9-IR] | –
1.9 | 0.5 | CGAKMTGTPNDPFYHKLSELLQRG [Peptide B6Hα-3-E6-IR] | –
1.8 | 0.6 | AGTPAQVG*NRLWSVWPGEHWNTVDPFYNKLSELLRESGA (AGTPAQVGXNRLWSVWPGEHWNTVDPFYNKLSELLRESGA; not fully specified; X: residue not identified in the source; ends and bridges not checked) [Peptide B6L-4-A7-IR] | –
4.0 | 0.3 | QSPVGSSHEDFYDWFFRQVAQSGAHQ [H2CA-3-D6-IGFR] | –
3.6 | 0.3 | PPLASDLDVQFYGWFVQQVSPPGRGG [H2CA-2-B3-IGFR] | –
16.0 | 0.1 | GIISQSCPESFYDWFAGQVSDPWWCW [H2CA-4-G9-IGFR] | –
10.3 | 0.1 | DRAFYNGLRDLVGAVYGAWD [R20α-4-20C11-IR] | –
4.2 | 0.2 | QAVQPGFHEEFYDWFVRQVSTGVGGG [H2CA-4-H4-IGFR] | –
1.4 | 0.7 | AETSAQVGWQRLWSVWPGDHWSTLDPFYHKLSELLRESGA [Peptide B6L-3-G5-IR] | –
3.0 | 0.3 | RGAVAGFHDQFYDWFDRQVSRVHKFG [H2CA-4-H9-IGFR] | –
13.0 | 0.1 | YRGMLVLGRISGGAGKAASERPARIGQKVSAVNFYDWFV [Peptide A6L-0-H3-IR] | –
3.3 | 0.3 | SRAKVEAEMPDSGDPFYHKLSELLASG [Peptide B6Hα-1-A3-IR] | –
6.0 | 0.2 | IIGGFYSYFNSVLRLGT [NNRPγ-4-A1-IR] | –
15.5 | 0.1 | LKDGFYDYFWQRLHLGS [NNRPγ-4-B11-IR] | –
5.9 | 0.2 | VNQSGSIHENFYDWFERQVSHQRGVR [H2CA-4-F10-IGFR] | –
3.4 | 0.3 | AETSVQVGWIRLQSVWPGEHWNTVDPFYHKLSELLRGSGA [Peptide B6L-4-D7-IR] | –
